# Experimental data: PubChem BioAssay (NCI)
#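 Where inhibition never reached the appropriate level, the endpoint shown equals the highest concentration tested. Otherwise, values were interpolated linearly from a five-concentration, 48-hour dose response in 96-well plates. Abbreviation: GI50, concentration required for 50% inhibition of growth. TGI marks complete inhibition of growth.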
# Legend:
# Assay in all cases: NCI-60 cell line screen, 48 h
# NCI-H522 lung = tested on: NCI-H522 lung
# SW-620 colon = tested on: SW-620 colon
# K-562 leukemia = tested on: K-562 leukemia
# PC-3 prostate = tested on: PC-3 prostate
# 786-0 renal = tested on: 786-0 renal
# OVCAR-3 ovarian = tested on: OVCAR-3 ovarian
# EKVX NSCLC = tested on: EKVX NSCLC
# SNB-19 CNS = tested on: SNB-19 CNS
# COLO 205 colon = tested on: COLO 205 colon
# CCRF-CEM leukemia = tested on: CCRF-CEM leukemia
# TK-10 renal = tested on: TK-10 renal
# HL-60(TB) leukemia = tested on: HL-60(TB) leukemia
# SK-MEL-2 melanoma = tested on: SK-MEL-2 melanoma
# NCI-H226 lung = tested on: NCI-H226 lung
# OVCAR-5 ovarian = tested on: OVCAR-5 ovarian
# BT-549 breast = tested on: BT-549 breast
# SK-OV-3 ovarian = tested on: SK-OV-3 ovarian
# HT29 colon = tested on: HT29 colon
# UACC-257 melanoma = tested on: UACC-257 melanoma
# HCT-116 colon = tested on: HCT-116 colon
# RXF 393 renal = tested on: RXF 393 renal
# UACC-62 melanoma = tested on: UACC-62 melanoma
# T-47D breast = tested on: T-47D breast
# SF-539 CNS = tested on: SF-539 CNS
# OVCAR-4 ovarian = tested on: OVCAR-4 ovarian
# SF-295 CNS = tested on: SF-295 CNS
# SNB-75 CNS = tested on: SNB-75 CNS
# MALME-3M melanoma = tested on: MALME-3M melanoma
# KM12 colon = tested on: KM12 colon
# SK-MEL-5 melanoma = tested on: SK-MEL-5 melanoma
# SN12C renal = tested on: SN12C renal
# UO-31 renal = tested on: UO-31 renal
# OVCAR-8 ovarian = tested on: OVCAR-8 ovarian
# MCF7 breast = tested on: MCF7 breast
# U251 CNS = tested on: U251 CNS
# CAKI-1 renal = tested on: CAKI-1 renal
# LOX IMVI melanoma = tested on: LOX IMVI melanoma
# SK-MEL-28 melanoma = tested on: SK-MEL-28 melanoma
# A549 NSCLC = tested on: A549 NSCLC
# RPMI-8226 leukemia = tested on: RPMI-8226 leukemia
# HOP-62 NSCLC = tested on: HOP-62 NSCLC
# NCI-H23 lung = tested on: NCI-H23 lung
# MOLT-4 leukemia = tested on: MOLT-4 leukemia
# M14 melanoma = tested on: M14 melanoma
# HCT-15 colon = tested on: HCT-15 colon
# IGROV1 ovarian = tested on: IGROV1 ovarian
# NCI/ADR-RES ovarian = tested on: NCI/ADR-RES ovarian
# HCC-2998 colon = tested on: HCC-2998 colon
# A498 renal = tested on: A498 renal
# HS 578T breast = tested on: HS 578T breast
# MDA-MB-231 breast = tested on: MDA-MB-231 breast
# ACHN renal = tested on: ACHN renal
# HOP-92 NSCLC = tested on: HOP-92 NSCLC
# SF-268 CNS = tested on: SF-268 CNS
# DU-145 prostate = tested on: DU-145 prostate
# MDA-MB-435 = tested on: MDA-MB-435
# NCI-H460 lung = tested on: NCI-H460 lung
smiles,measurement,setting,value
O=C(CSCC(=O)N/N=C/c1cccc(OCc2ccccc2)c1)N/N=C/c1cccc(OCc2ccccc2)c1,TGI,NCI-H522 lung,> 100 µM
same,TGI,SW-620 colon,> 100 µM
same,TGI,K-562 leukemia,> 100 µM
same,TGI,PC-3 prostate,97.8 µM
same,TGI,786-0 renal,> 100 µM
same,TGI,OVCAR-3 ovarian,> 100 µM
same,TGI,EKVX NSCLC,> 100 µM
same,TGI,SNB-19 CNS,> 100 µM
same,GI50,COLO 205 colon,37.5 µM
same,TGI,COLO 205 colon,> 100 µM
same,TGI,CCRF-CEM leukemia,> 100 µM
same,TGI,TK-10 renal,> 100 µM
same,TGI,HL-60(TB) leukemia,53.3 µM
same,TGI,SK-MEL-2 melanoma,> 100 µM
same,TGI,NCI-H226 lung,> 100 µM
same,TGI,OVCAR-5 ovarian,> 100 µM
same,TGI,BT-549 breast,> 100 µM
same,TGI,SK-OV-3 ovarian,> 100 µM
same,TGI,HT29 colon,> 100 µM
same,TGI,UACC-257 melanoma,> 85.1 µM
same,TGI,HCT-116 colon,> 100 µM
same,TGI,RXF 393 renal,> 100 µM
same,TGI,UACC-62 melanoma,> 100 µM
same,TGI,T-47D breast,> 100 µM
same,TGI,SF-539 CNS,> 100 µM
same,TGI,OVCAR-4 ovarian,> 100 µM
same,TGI,SF-295 CNS,> 100 µM
same,TGI,SNB-75 CNS,> 100 µM
same,TGI,MALME-3M melanoma,> 100 µM
same,TGI,KM12 colon,> 100 µM
same,TGI,SK-MEL-5 melanoma,> 92.8 µM
same,TGI,SN12C renal,> 74 µM
same,TGI,UO-31 renal,> 100 µM
same,TGI,OVCAR-8 ovarian,> 100 µM
same,TGI,MCF7 breast,> 100 µM
same,TGI,U251 CNS,> 100 µM
same,TGI,CAKI-1 renal,> 100 µM
same,TGI,LOX IMVI melanoma,> 100 µM
same,TGI,SK-MEL-28 melanoma,> 100 µM
same,TGI,A549 NSCLC,> 100 µM
same,TGI,RPMI-8226 leukemia,39.9 µM
same,TGI,HOP-62 NSCLC,> 100 µM
same,TGI,NCI-H23 lung,> 100 µM
same,TGI,MOLT-4 leukemia,46.4 µM
same,TGI,M14 melanoma,> 100 µM
same,TGI,HCT-15 colon,> 100 µM
same,TGI,IGROV1 ovarian,> 100 µM
same,TGI,NCI/ADR-RES ovarian,> 100 µM
same,TGI,HCC-2998 colon,> 100 µM
same,TGI,A498 renal,> 69.7 µM
same,TGI,HS 578T breast,> 100 µM
same,TGI,MDA-MB-231 breast,> 100 µM
same,TGI,ACHN renal,> 100 µM
same,TGI,HOP-92 NSCLC,97.2 µM
same,TGI,SF-268 CNS,> 100 µM
same,TGI,DU-145 prostate,> 100 µM
same,TGI,MDA-MB-435,> 100 µM
same,TGI,NCI-H460 lung,> 100 µM
